{"source": "ChEMBL document CHEMBL1141827", "about": "“A glycosyl analogue of diacylglycerol and other antiinflammatory constituents from Inula viscosa” (1999)", "assay_type_in_all_cases": "functional", "key": {"[1]": {"species_on_record": "Mus musculus", "assay": "Antiinflammatory activity against Swiss mouse chronic dermatitis model assessed as inhibition of TPA-induced tissue myeloperoxidase activity at 0.5 mg/ear applied twice daily for 4 days measured after 6 hrs"}, "[2]": {"test_system": "Mus musculus", "assay": "Antiinflammatory activity against Swiss mouse chronic dermatitis model assessed as inhibition of TPA-induced edema at 0.5 mg/ear applied twice daily for 4 days measured after 6 hrs"}, "[3]": {"test_system": "Mus musculus", "assay": "Antiinflammatory activity against Swiss mouse assessed as inhibition of arachidonic acid-induced edema at 0.5 mg/ear applied 30 mins before arachidonic acid challenge measured after 1 hr"}, "[4]": {"test_system": "Mus musculus", "assay": "Antiinflammatory activity against Swiss mouse assessed as inhibition of TPA-induced edema at 0.5 mg/ear applied simultaneously with TPA measured after 4 hrs"}, "[5]": {"test_system": "Mus musculus", "assay": "Antiinflammatory activity against Swiss mouse assessed as inhibition of carrageenan-induced paw volume at 100 mg/kg, po administered 1 hr prior to carrageenan challenge measured after 5 hrs"}, "[6]": {"test_system": "Mus musculus", "assay": "Antiinflammatory activity against Swiss mouse assessed as inhibition of carrageenan-induced paw volume at 100 mg/kg, po administered 1 hr prior to carrageenan challenge measured after 3 hrs"}, "[7]": {"test_system": "Mus musculus", "assay": "Antiinflammatory activity against Swiss mouse assessed as inhibition of carrageenan-induced paw volume at 100 mg/kg, po administered 1 hr prior to carrageenan challenge measured after 1 hr"}}}
{"smiles": "C[C@@H]1C[C@H]2[C@@H]3CCC4=CC(=O)C=C[C@]4(C)[C@@]3(F)[C@@H](O)C[C@]2(C)[C@@]1(O)C(=O)CO", "note": "[DEXAMETHASONE]", "values": [{"measurement": "inhibition (INH)", "setting": "[1]", "result": 92, "unit": "%"}, {"measurement": "inhibition (INH)", "setting": "[2]", "result": 92, "unit": "%"}]}
{"smiles": "COc1cc(O)c2c(c1)O[C@H](c1ccc(O)cc1)[C@@H](O)C2=O", "values": [{"measurement": "inhibition (INH)", "setting": "[3]", "result": 3, "unit": "%"}, {"measurement": "inhibition (INH)", "setting": "[4]", "result": 78, "unit": "%"}]}
{"smiles": "C=C1C(=O)O[C@H]2CC(=C)[C@H]3CC[C@@](C)(O)[C@@H]3C[C@H]12", "note": "[INUVISCOLIDE]", "values": [{"measurement": "inhibition (INH)", "setting": "[3]", "result": -16, "unit": "%"}, {"measurement": "inhibition (INH)", "setting": "[4]", "result": 90, "unit": "%"}]}
{"smiles": "O=C1CCN(c2ccccc2)N1", "note": "[PHENIDONE]", "values": [{"measurement": "inhibition (INH)", "setting": "[3]", "result": 51, "unit": "%"}]}
{"smiles": "CC/C=C\\C/C=C\\C/C=C\\CCCCCCCC(=O)OC(COC(=O)CCCCCCCCCCCCCCC)CO[C@H]1O[C@@H](CO[C@H]2O[C@H](CO)[C@H](O)[C@H](O)[C@H]2O)[C@@H](O)[C@@H](O)[C@@H]1O", "note": "(some centres undefined) [INUGALACTOLIPID A]", "values": [{"measurement": "inhibition (INH)", "setting": "[3]", "result": 5, "unit": "%"}, {"measurement": "inhibition in vivo at 100 mg/kg", "setting": "[5]", "result": 5, "unit": "%"}, {"measurement": "inhibition (INH)", "setting": "[1]", "result": 84, "unit": "%"}, {"measurement": "inhibition in vivo at 100 mg/kg", "setting": "[6]", "result": 10, "unit": "%"}, {"measurement": "inhibition in vivo at 100 mg/kg", "setting": "[7]", "result": -16, "unit": "%"}, {"measurement": "inhibition (INH)", "setting": "[4]", "result": 48, "unit": "%"}, {"measurement": "inhibition (INH)", "setting": "[2]", "result": 97, "unit": "%"}]}
{"smiles": "COc1cc(O)c2c(=O)c(O)c(-c3ccc(O)cc3)oc2c1", "note": "[RHAMNOCITRIN]", "values": [{"measurement": "inhibition (INH)", "setting": "[3]", "result": 6, "unit": "%"}, {"measurement": "inhibition (INH)", "setting": "[4]", "result": 78, "unit": "%"}]}
{"smiles": "CCCCC1C(=O)N(c2ccccc2)N(c2ccccc2)C1=O", "note": "[PHENYLBUTAZONE]", "values": [{"measurement": "inhibition in vivo at 100 mg/kg", "setting": "[5]", "result": 43, "unit": "%"}, {"measurement": "inhibition in vivo at 100 mg/kg", "setting": "[6]", "result": 58, "unit": "%"}, {"measurement": "inhibition in vivo at 100 mg/kg", "setting": "[7]", "result": 54, "unit": "%"}]}
{"smiles": "COc1cc(O)c2c(c1)O[C@H](c1ccc(O)c(O)c1)[C@@H](OC(C)=O)C2=O", "values": [{"measurement": "inhibition (INH)", "setting": "[3]", "result": -1, "unit": "%"}, {"measurement": "inhibition (INH)", "setting": "[4]", "result": 83, "unit": "%"}]}
{"smiles": "COc1ccc2c(c1)c(CC(=O)O)c(C)n2C(=O)c1ccc(Cl)cc1", "note": "[INDOMETHACIN]", "values": [{"measurement": "inhibition (INH)", "setting": "[4]", "result": 91, "unit": "%"}]}
{"smiles": "C=C(C(=O)O)[C@@H]1CC[C@@]2(C)CCC[C@@](C)(O)[C@@H]2C1", "note": "[ILICIC ACID]", "values": [{"measurement": "inhibition (INH)", "setting": "[3]", "result": 18, "unit": "%"}, {"measurement": "inhibition in vivo at 100 mg/kg", "setting": "[5]", "result": 30, "unit": "%"}, {"measurement": "inhibition (INH)", "setting": "[1]", "result": 82, "unit": "%"}, {"measurement": "inhibition in vivo at 100 mg/kg", "setting": "[6]", "result": 32, "unit": "%"}, {"measurement": "inhibition in vivo at 100 mg/kg", "setting": "[7]", "result": 5, "unit": "%"}, {"measurement": "inhibition (INH)", "setting": "[4]", "result": 72, "unit": "%"}, {"measurement": "inhibition (INH)", "setting": "[2]", "result": 78, "unit": "%"}]}
